Several values for one entry are separate records, joined by “and”; a condition that tells them apart may be missing. Equal values may be shown once.
What was measured:
[1] = system: E. coli (ATCC 25922); type: cell-based, Escherichia coli; settings: for MIC/CAC, converted data, E. coli: MIC divided by the amphiphile's CAC; for MIC, E. coli: microdilution, serial half-dilution in PBS, Mueller Hinton broth, 37 °C, 24 h, 10^6 CFU/mL, by eye and OD600, ± SD, at least three replicates
Procedure: E. coli (ATCC 25922), S. aureus (ATCC 6538), and C. albicans SC5314 (ATCC MYA-2876) were purchased from the American Type Culture Collection (ATCC). The two bacterial strains, E. coli and S. aureus, were cultured in Mueller Hinton broth at 37 °C; while the yeast strain, C. albicans, was grown in RPMI 1640 medium at 30 °C. The microdilution method was employed to determine MICs of the amphiphiles against the microorganism strains listed above.[21] Solutions of lipopeptides and biocides were half-diluted serially in 96-well plates using PBS buffer containing 137 mM NaCl, 2.7 mM KCl, 8.1 mM Na2HPO4, and 1.9 mM KH2PO4 for E. coli and S. aureus and using RPMI 1640 for C. albicans. Overnight incubations of the strains, in each respective growth medium, were then inoculated into each well, giving final concentrations of 10^6 CFU/mL for E. coli and S. aureus and 10^5 CFU/mL for C. albicans. Culture media without microorganisms and amphiphiles were employed as positive controls, while fresh microorganism cultures without amphiphiles were used as negative controls. Each plate has both positive controls and negative controls. The plates were then incubated at an appropriate temperature (stated above) for 24 h for the bacterial strains and 48 h for the yeast strain. MICs of each sample were first determined by eye. A more quantitative analysis was carried out by measuring optical densities at 600 nm (OD600) of each well using a Sunrise absorbance microplate reader (Tecan Group Ltd.). Inhibitory ratios (IRs) of each sample at a given concentration against a specific strain, denoted as IRi, were calculated by IRi = (OD600,negative control – OD600,i)/(OD600,negative control – OD600,positive control) × 100%. All experiments were repeated at least three times with each group containing three replicates. To better analyze concentration–IR relationships, sigmoidal function fittings were employed to generate the best fitted dose response curve for each situation.

[2] = system: hRBCs; type: cell-based, human; settings: hemolysis in PBS, 4% hRBC suspension mixed 1:1, 37 °C, 1 h, OD450, sigmoidal fit; ± SD, at least three replicates; read-out: EC50, hRBC (50% hemolysis)
Procedure: hRBCs were purchased from Rockland Immunochemical Inc. Hemolytic assays were performed in 96-well plates in an environment of PBS, as previously described.[13],[23] Amphiphiles were half diluted serially at first, resulting in 100 μL of solution in each well, and mixed subsequently with 100 μL of 4% hRBC suspension. Wells filled by PBS mixed with hRBC were employed as positive controls, while hRBCs with added 0.1% Triton X-100 were negative controls. After incubating at 37 °C for 1 h, the plates were centrifuged at 1000 times gravity for 5 min. The supernatants in each well, which contained the released hemoglobin, were transferred to another plate, and their optical density at 450 nm (OD450) was measured using an absorbance microplate reader. The percentage of hemolysis H for each sample at a certain concentration c was obtained by Hc = (OD450,c – OD450,positive control)/(OD450,negative control – OD450,positive control) × 100%. Figures for percentage leakage against concentration for each sample were plotted to determine the approximate range of 50% hemolysis, and the relevant concentration was the half maximal effective concentration (EC50) of the sample. Each experiment was repeated at least three times with each containing three replicates. The dose–response curves were again obtained by applying sigmoidal functional fits to obtain the EC50 values.

[3] = Neutron reflectivity of amphiphile binding to lipid monolayer; settings: C14KKGGII 5 μM, C14TAB 2.5 μM, C12TAB 75 μM; for Γamphiphile, amount bound to DPPC monolayer / Γamphiphile, amount bound to DPPG monolayer: monolayer at 28 mN/m; for DPPG lipid removed from monolayer: NR
Procedure: Single-component lipid monolayer models in a Langmuir trough (12.5 cm × 15 cm, Nima Technology Ltd., UK) were employed to investigate interactions between amphiphiles and lipids. The trough was filled with 70 mL of PBS at room temperature to provide a physiological environment.[23]−[25] Saturated head-charged lipid DPPG and saturated zwitterionic DPPC monolayers, mimicking negatively charged microbial membranes and mammalian cell membranes, respectively, were formed, and their interactions with amphiphiles were controlled by injecting each amphiphile carefully from outside the trough barrier. The lipids were dissolved in a chloroform/methanol mixture (v/v 9:1) to form the spreading solution. The lipid monolayer was spread by dripping the lipid solution onto the surface of the PBS solution. Following stabilization of the surface pressure, three cycles of isothermal compression and expansion were carried out to make the monolayer homogeneous. The surface was controlled at an initial pressure of 28 mN/m to mimic the static pressure within cell membranes. The final concentration of the amphiphile after injection was 1/40 of its CAC value for C14TAB, while the final concentration was 3/40 CAC for C12TAB because of its relatively higher MICs. Surface pressure changes with time following the injection process were recorded and analyzed.
Monolayer models described above were characterized using neutron reflectivity (NR) to measure the component distribution normal to the air/liquid interface. Measurements were performed on the SURF reflectometer at the ISIS Neutron and Muon Source (STFC Rutherford Appleton Laboratory, Didcot, UK).[23]−[25] The instrument provided a momentum transfer (Q) range from 0.01 to 0.5 Å^–1 [Q = […], where λ is the wavelength of the incoming neutron beam and θ is the incident angle]. At the start of the NR measurements, the reflectivity of the air/D2O interface was used for instrument calibration. Monolayers were prepared on the beamline. For each interaction, different isotopic contrasts were examined by applying chain-deuterated or fully hydrogenated versions of lipids (d62-DPPG, DPPG, d62-DPPC, and DPPC, denoted as dDPPG, hDPPG, dDPPC, and hDPPC, respectively) on the surface of PBS in D2O or null reflecting water (NRW, H2O/D2O = 91.9%/8.1%, v/v) and injecting deuterated or protonated versions of amphiphiles (C14KKGGII, dC14KKGGII, C12TAB, dC12dTAB, and C14TAB, denoted as hC14KKGGII, dC14KKGGII, hC12TAB, dC12TAB, and hC14TAB, respectively) from underneath the lipid monolayer outside the trough barrier bar. Reflectivity profiles from lipid monolayers were scanned before amphiphile injection to ensure good monolayer reproducibility. Raw data were reduced using Mantid software, and the resultant NR profiles were fitted via the least squares method using a Motofit package on Igor 6, where a multilayer model was employed in the analysis. The thickness and scattering length density (SLD, Nb) of each layer, that is, lipid tail region, lipid head region, and lipopeptide region, were fitted to the data. The SLD of each layer is related to the volume fractions of its components and could be calculated using Nb = ∑iφiNbi, where i denotes each component, for example, the solvent, lipid tails, lipid heads, lipopeptides’ acyl chains, and lipopeptides’ amino acids, and φi represents the volume fraction of component i and is constrained by ∑iφi = 1 in each layer. More details about the division of the molecular head/tail groups and relevant fitting parameters can be found in Figure S3 and Tables S3 and S4.

Compound | MIC/CAC, converted data, E. coli [1] | MIC, E. coli [1] | EC50 [2] | Γlipid, DPPC remaining on the surface after amphiphile binding ([3]; NR best fit, DPPC monolayer at 28 mN/m, 3.08 ± 0.08 before) | Γlipid, DPPG remaining on the surface after amphiphile binding ([3]; NR best fit, DPPG monolayer at 28 mN/m, 3.35 ± 0.01 before) | Γamphiphile, amount bound to DPPC monolayer ([3]; NR best fit) | Γamphiphile, amount bound to DPPG monolayer ([3]; NR best fit) | DPPG lipid removed from monolayer [3]
CCCCCCCCCCCC[N+](C)(C)C.[Br-] [C12TAB, dodecyltrimethylammonium bromide] | 0.20 ± 0.04 | 200 ± 40 µM | 610 ± 30 µM | 2.55 ± 0.01 μmol/m^2 | 2.70 ± 0.20 μmol/m^2 | 0.98 ± 0.02 μmol/m^2 | 1.51 ± 0.01 μmol/m^2 | 22%
CCCCCCCCCCCCCC[N+](C)(C)C.[Br-] [C14TAB, tetradecyltrimethylammonium bromide] | 1 and 1.00 ± 0.30 | 100 ± 30 µM | 98 ± 8 µM |  |  | 1.10 ± 0.01 μmol/m^2 | 1.43 ± 0.02 μmol/m^2 | 19%

— publication PMC9161444, “In-Membrane Nanostructuring of Cationic Amphiphiles Affects Their Antimicrobial Efficacy and Cytotoxicity: A Comparison Study between a De Novo Antimicrobial Lipopeptide and Traditional Biocides” (Langmuir, 2022)
